Measurements published in patent US20170275298A1, “INHIBITORS OF THE RENAL OUTER MEDULLARY POTASSIUM CHANNEL” (Merck Sharp & Dohme Corp., priority 2014, published 2017).

biological target: T1, hROMK (hKir1.1) (Homo sapiens, UniProt P48048); assay: Thallium Flux Assay (ROMK channel functional thallium flux assay); type: cell-based; details: HEK293 cells stably expressing hROMK (hKir1.1); FluxOR thallium flux, FLIPR-Tetra, 30 min compound incubation; read-out: ROMK TI IC50
T1 construct: expressed in transfected cells
T1 sequence (P48048 1-391): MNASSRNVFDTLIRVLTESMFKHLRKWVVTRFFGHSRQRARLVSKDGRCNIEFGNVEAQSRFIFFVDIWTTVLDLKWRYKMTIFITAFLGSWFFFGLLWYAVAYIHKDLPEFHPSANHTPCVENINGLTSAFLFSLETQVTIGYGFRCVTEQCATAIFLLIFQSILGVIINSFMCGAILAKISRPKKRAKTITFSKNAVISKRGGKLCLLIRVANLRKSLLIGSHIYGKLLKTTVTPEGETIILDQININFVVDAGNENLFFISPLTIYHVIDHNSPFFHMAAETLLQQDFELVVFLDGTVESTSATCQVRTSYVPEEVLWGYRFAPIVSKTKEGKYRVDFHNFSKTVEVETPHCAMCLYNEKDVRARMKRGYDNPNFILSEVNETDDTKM
Experimental: The following Thallium Flux Assay was performed on each of the final product compounds in the Examples.
HEK293 cells stably expressing hROMK (hKir1.1) were grown at 37° C. in a 10% CO2 humidified incubator in complete growth media: Dulbecco's Modified Eagle Medium supplemented with non-essential amino acids, Penicillin/Streptomycin/Glutamine, G418 and FBS. At >80% confluency, the media was aspirated from the flask and rinsed with 10 mL calcium/magnesium-free PBS. […] To dislodge the cell, the side of the flask was gently banged with one's hand. The cells completely titrated and then the cells were transferred to 25 mL complete media, centrifuged at 1,500 rpm for 6 min followed by resuspension in complete growth media and determine cell concentration. […] Under ideal growth conditions and appropriate tissue culture practices, this cell line is stable for 40-45 passages.
• FluxOR™ Reagent (Component A) • FluxOR™ Assay Buffer (Component B)—10× Concentrate • PowerLoad™ Concentrate (Component C)—100× Concentrate • Probenecid (Component D)—Lyophilized sample is kept at −20° C. Water soluble, 100× after solubilization in 1 mL water. […] Store at 4° C. • Thallium sulfate (Tl2SO4) Concentrate (Component G)—50 mM in water. Store at 4° C. • DMSO (dimethyl sulfoxide, Component H)—1 mL (100%)
Can be stored at room temperature • Stimulant Buffer (prepared at 5× final concentration in 1×FluxOR™ Chloride-Free Buffer): 7.5 mM thallium sulfate and 0.75 mM potassium sulfate (to give a final assay concentration of 3 mM Thallium/0.3 mM potassium). Store at 4° C. when not in use. If kept sterile, this solution is good for months.
The ROMK channel functional thallium flux assay was performed in 384 wells, using the FLIPR-Tetra instrument. HEK-hKir1.1 cells were seeded in Poly-D-Lysine microplates and kept in a 37° C.-10% CO2 incubator overnight. On the day of the experiment, the growth media was replaced with the FluxOR™ reagent loading buffer and incubated, protected from light, at ambient temperature (23-25° C.) for 90 min. The loading buffer was replaced with assay buffer±test compound followed by 30 min incubation at ambient temperature, where the thallium/potassium stimulant was added to the microplate.
1. Seed HEK-hKir1.1 cells (50 μl at 20,000 cells/well) in 384-well PDL coated Microplates 2. Allow cells to adhere overnight in humidified 37° C./10% CO2 incubator 3. Completely remove cell growth media from microplate and replace with 25 μl loading buffer 4. Incubate Microplate at room temperature, protected form light, for 90 min 5. Remove loading buffer and replace with 25 μl 1× Assay Buffer±test compound. 6. Incubate microplate at room temperature, protected from light, for 30 min 7. […] Excitation=400 nm, Emission=460 & 580 nm. Collect data for ˜10 min.
The fluorescence intensity of wells containing 3 μM of a standard control ROMK inhibitor of the present invention was used to define the ROMK-sensitive component of thallium flux. Fluorescence in the presence of test compounds was normalized to control values to provide % fluorescence change.

IC50 [nM] | SMILES
176 | Cc1c([C@@H](O)CN2CCC3(CC2)CCN(c2cnn(C)c(=O)c2)C3=O)ccc2c1COC2=O [Example 49, (R)-8-(2-hydroxy-2-(4-methyl-1-oxo-1,3-dihydroisobenzofuran-5-yl)ethyl)-2-(1-methyl-6-oxo-1,6-dihydropyridazin-4-yl)-2,8-diazaspiro[4.5]decan-1-one]
480 | COc1cc(N2CCC3(CCN(C[C@H](O)c4ccc5c(c4C)COC5=O)CC3)C2=O)cnn1 [Example 50, (R)-8-(2-hydroxy-2-(4-methyl-1-oxo-1,3-dihydroisobenzofuran-5-yl)ethyl)-2-(6-methoxypyridazin-4-yl)-2,8-diazaspiro[4.5]decan-1-one]
77 | CCn1nc(N2CCC3(CCN(C[C@H](O)c4ccc5c(c4C)COC5=O)CC3)C2=O)ccc1=O [Example 51, (R)-2-(1-ethyl-6-oxo-1,6-dihydropyridazin-3-yl)-8-(2-hydroxy-2-(4-methyl-1-oxo-1,3-dihydroisobenzofuran-5-yl)ethyl)-2,8-diazaspiro[4.5]decan-1-one]
427 | Cc1c([C@@H](O)CN2CCC3(CC2)CCN(c2cc(C)c(=O)n(C)n2)C3=O)ccc2c1COC2=O [Example 52, (R)-2-(1,5-dimethyl-6-oxo-1,6-dihydropyridazin-3-yl)-8-(2-hydroxy-2-(4-methyl-1-oxo-1,3-dihydroisobenzofuran-5-yl)ethyl)-2,8-diazaspiro[4.5]decan-1-one]
40.6 | Cc1c([C@@H](O)CN2CCC3(CC2)CCN(c2ccc(=O)n(C4CC4)n2)C3=O)ccc2c1COC2=O [Example 53, (R)-2-(1-cyclopropyl-6-oxo-1,6-dihydropyridazin-3-yl)-8-(2-hydroxy-2-(4-methyl-1-oxo-1,3-dihydroisobenzofuran-5-yl)ethyl)-2,8-diazaspiro[4.5]decan-1-one]
293 | Cc1c([C@@H](O)CN2CCC3(CC2)CCN(c2ccc(=O)n(C(F)F)c2)C3=O)ccc2c1COC2=O [Example 54, (R)-2-(1-(difluoromethyl)-6-oxo-1,6-dihydropyridin-3-yl)-8-(2-hydroxy-2-(4-methyl-1-oxo-1,3-dihydroisobenzofuran-5-yl)ethyl)-2,8-diazaspiro[4.5]decan-1-one]
133 | Cc1c([C@@H](O)CN2CCC3(CC2)CCN(c2ccc(=O)n(C(F)F)n2)C3=O)ccc2c1COC2=O [Example 55, (R)-2-(1-(difluoromethyl)-6-oxo-1,6-dihydropyridazin-3-yl)-8-(2-hydroxy-2-(4-methyl-1-oxo-1,3-dihydroisobenzofuran-5-yl)ethyl)-2,8-diazaspiro[4.5]decan-1-one]
35.1 | Cc1c([C@@H](O)CN2CCC3(CC2)CCN(c2ccc(=O)n(C)n2)C3=O)ccc2c1COC2=O [Example 56, (R)-8-(2-hydroxy-2-(4-methyl-1-oxo-1,3-dihydroisobenzofuran-5-yl)ethyl)-2-(1-methyl-6-oxo-1,6-dihydropyridazin-3-yl)-2,8-diazaspiro[4.5]decan-1-one]
17.5 | Cc1cc(N2CCC3(CCN(C[C@H](O)c4ccc5c(c4C)COC5=O)CC3)C2=O)sn1 [Example 66, (R)-8-(2-hydroxy-2-(4-methyl-1-oxo-1,3-dihydroisobenzofuran-5-yl)ethyl)-2-(3-methylisothiazol-5-yl)-2,8-diazaspiro[4.5]decan-1-one]
20 | Cc1c([C@@H](O)CN2CCC3(CC2)CCN(c2cnsc2)C3=O)ccc2c1COC2=O [Example 72, (R)-8-(2-hydroxy-2-(4-methyl-1-oxo-1,3-dihydroisobenzofuran-5-yl)ethyl)-2-(isothiazol-4-yl)-2,8-diazaspiro[4.5]decan-1-one]
417 | Cc1c([C@@H](O)CN2CCC3(CC2)CCN(c2ccncc2F)C3=O)ccc2c1COC2=O [Example 73, (R)-2-(3-fluoropyridin-4-yl)-8-(2-hydroxy-2-(4-methyl-1-oxo-1,3-dihydroisobenzofuran-5-yl)ethyl)-2,8-diazaspiro[4.5]decan-1-one]
55.7 | COc1cc(N2CCC3(CCN(C[C@H](O)c4ccc5c(c4C)COC5=O)CC3)C2=O)ccn1 [Example 74, (R)-8-(2-hydroxy-2-(4-methyl-1-oxo-1,3-dihydroisobenzofuran-5-yl)ethyl)-2-(2-methoxypyridin-4-yl)-2,8-diazaspiro[4.5]decan-1-one]

The remaining lines, values behind:

SMILES | IC50 [nM]
CCc1nccc(N2CCC3(CCN(C[C@H](O)c4ccc5c(c4C)COC5=O)CC3)C2=O)n1 [Example 45, (R)-2-(2-ethylpyrimidin-4-yl)-8-(2-hydroxy-2-(4-methyl-1-oxo-1,3-dihydroisobenzofuran-5-yl)ethyl)-2,8-diazaspiro[4.5]decan-1-one] | 354
Cc1c([C@@H](O)CN2CCC3(CC2)CCN(c2ccnc(N)n2)C3=O)ccc2c1COC2=O [Example 46, (R)-2-(2-aminopyrimidin-4-yl)-8-(2-hydroxy-2-(4-methyl-1-oxo-1,3-dihydroisobenzofuran-5-yl)ethyl)-2,8-diazaspiro[4.5]decan-1-one] | 485
CNc1nccc(N2CCC3(CCN(C[C@H](O)c4ccc5c(c4C)COC5=O)CC3)C2=O)n1 [Example 47, (R)-8-(2-hydroxy-2-(4-methyl-1-oxo-1,3-dihydroisobenzofuran-5-yl)ethyl)-2-(2-(methylamino)pyrimidin-4-yl)-2,8-diazaspiro[4.5]decan-1-one] | 58.5
Cc1c([C@@H](O)CN2CCC3(CC2)CC(=O)N(c2ccns2)C3)ccc2c1COC2=O [Example 61, (R)-8-(2-hydroxy-2-(4-methyl-1-oxo-1,3-dihydroisobenzofuran-5-yl)ethyl)-2-(isothiazol-5-yl)-2,8-diazaspiro[4.5]decan-3-one] | 547
CCOC(=O)c1cc(N2CCC3(CCN(C[C@H](O)c4ccc5c(c4C)COC5=O)CC3)C2=O)on1 [Example 64, (R)-ethyl 5-(8-(2-hydroxy-2-(4-methyl-1-oxo-1,3-dihydroisobenzofuran-5-yl)ethyl)-1-oxo-2,8-diazaspiro[4.5]decan-2-yl)isoxazole-3-carboxylate] | 241
Cc1c([C@@H](O)CN2CCC3(CC2)CCN(c2ccncn2)C3=O)ccc2c1COC2=O [Example 67, (R)-8-(2-hydroxy-2-(4-methyl-1-oxo-1,3-dihydroisobenzofuran-5-yl)ethyl)-2-(pyrimidin-4-yl)-2,8-diazaspiro[4.5]decan-1-one] | 434
Cc1cc2c(cc1[C@@H](O)CN1CCC3(CC1)CCN(c1ccns1)C3=O)COC2=O [Example 68, (R)-8-(2-hydroxy-2-(6-methyl-1-oxo-1,3-dihydroisobenzofuran-5-yl)ethyl)-2-(isothiazol-5-yl)-2,8-diazaspiro[4.5]decan-1-one] | 221
Cc1cc2c(cc1[C@H](O)CN1CCC3(CC1)CCN(c1ccns1)C3=O)COC2=O [Example 69, (S)-8-(2-hydroxy-2-(6-methyl-1-oxo-1,3-dihydroisobenzofuran-5-yl)ethyl)-2-(isothiazol-5-yl)-2,8-diazaspiro[4.5]decan-1-one] | 673
COc1cc([C@@H](O)CN2CCC3(CC2)CCN(c2ccns2)C3=O)ncc1C#N [Example 70, (S)-6-(1-hydroxy-2-(2-(isothiazol-5-yl)-1-oxo-2,8-diazaspiro[4.5]decan-8-yl)ethyl)-4-methoxynicotinonitrile] | 695
Cc1nsc(N2CCC3(CCN(C[C@H](O)c4ccc5c(c4C)COC5=O)CC3)C2=O)n1 [Example 71, (R)-8-(2-hydroxy-2-(4-methyl-1-oxo-1,3-dihydroisobenzofuran-5-yl)ethyl)-2-(3-methyl-1,2,4-thiadiazol-5-yl)-2,8-diazaspiro[4.5]decan-1-one] | 37.1
